Assay results taken from patent publication US10413545B2, “Imidazolin-5-one derivative useful as FASN inhibitors for the treatment of cancer” (Janssen Pharmaceutica NV, priority 2013, dated 2019).
Where two headings read alike, the source gives them in different places.

Legend:
Format in all cases: cell-based
[1] = system: LNCaP_Vancouver prostate cells; assay: In Vitro LNCaP Vancouver Prostate Cell Proliferation Assay in Lipid Reduced Medium; conditions: Prostate cell; 10% lipid reduced serum, 96 h, ATP-glow luminescence; read-out: pIC50 LNCaP_Vancouver prostate cell (converted)
Protocol: LNCaP_Vancouver prostate cells were obtained from the Vancouver Prostate Cancer Centre.
(§1) The next day 10 μl of test compound/DMSO diluted in medium was added (3E-5M, 1E-5M, 3E-6M,1E-6M, 3E-7M, 1E-7M, 3E-8M, 1E-8M final concentration). Compounds were tested in duplicate. After 96 h incubation at 37° C., 5% CO2 25 μl ATP-glow mix was added. The plate was incubated for 30 min at 37° C. and luminescence was measured with the Envision.
(§2) Analysis: Determination of pIC50 Values
(§3) pIC50 values were calculated as follows. Raw data generated by the instruments were normalized to % Controlmin values, which were calculated as: % Controlmin=100*(x−mLC)/(mHC−mLC),
(§4) where mLC and mHC are the means of the low control wells and high control wells on the plate, after manual exclusion of outliers. The relation between the % Controlmin values and concentration was fitted to a 4-parameter logistic curve using a non-linear least squares regression method to determine the pIC50 value. Outlying data points were excluded manually to get a correct fit. The pIC50 corresponds to −log 10(IC50), if the IC50 is expressed in molar units (http://www.ncbi.nlm.nih.qovibooks/NBK91994). The IC50 parameter was always determined by non-linear regression, but one or more of the other parameters may have been held fixed on a relevant input value, such as 0 for the bottom values.

[2] = system: PC-3M-Luc-C6 prostate cells; assay: In Vitro PC-3M-Luc-C6 Prostate Cell Proliferation Assay in Lipid Reduced Medium; conditions: Prostate cell, read-out: pIC50 PC-3M-Luc-C6 prostate cell (converted); 10% lipid reduced serum, 96 h, ATP-glow luminescence
Protocol: PC-3M-Luc-C6 prostate cells were obtained from Xenogen Corporation. Cells were maintained in MEM supplemented with 10% Fetal Calf Serum (FCS, Hyclone), 2 mM glutamine, 1 mM sodium pyruvate, 1% BME vitamins (available from for example, Sigma Aldrich), 0.1 mM non Essential Amino Acid and 50 μg/ml Gentamicin. The cells were passaged twice a week.
as §1, with “μl” for “μl of”
as §2, §3, §4

A2780 ovarian cells = assay: A2780 Ovarian Cell Proliferation Assay in Lipid Reduced Medium, with and without Palmitate (MTT); conditions: Homo sapiens, 10% lipid-reduced serum, 96 h
Protocol: The biological assays described below correspond to comparative assays for ovarian cell proliferation.
2500 cells were seeded in a 96-well clear well plate in 200 μL RPM11640 with 10% Fetal Calf Serum (Hyclone), and incubated at 37° C., 5% CO2, Blanks were wells without cells. The next day the culture medium was aspirated and replaced by 160 μL culture medium with 10% Lipid-Reduced Serum (LRS, Hyclone). […] After 96 h incubation, an MTT assay was performed.
2500 cells were seeded in a 96-well clear well plate in 200 μL RPM11640 with 10% Fetal Calf Serum (Hyclone), and incubated at 37° C., 5% CO2. Blanks were wells without cells. The next day the culture medium was aspirated and replaced by 160 μL culture medium with 10% Lipid-Reduced Serum (LRS, Hyclone). 20 μL test compound (at concentrations of 30 μM, 10 μM, 3 μM, 1 μM, 0.30 μM, 0.10 μM, 0.03 μM and 0.01 μM)/DMSO dilution followed by 20 μL ethanol-BSA solution were added to a final concentrations of 0.2% DMSO, 0.2% fatty-acid-free BSA, 0.25% ethanol. After 96 h incubation an MTT assay was performed.
Raw data generated by the instrument were normalized to % Controlmin values, which were calculated as: % Controlmin=100*(x−mLC)/(mHC−mLC)
where mLC and mHC were the means of the low control wells and high control wells on the plate, after manual exclusion of outliers. A plot of Controlmin versus test compound concentration was fitted to a 4-parameter logistic curve using a non-linear least squares regression method.

[3] = 25 μM palmitate added (control), read-out: pIC50 With Palmitate (converted)
[4] = no palmitate, read-out: pIC50 Without Palmitate (converted)

| SMILES | IC50 [1] | IC50 [2] | IC50 (A2780 ovarian cells; [3]) | IC50 (A2780 ovarian cells; [4]) |
| --- | --- | --- | --- | --- |
| CC1(C)N=C(c2ccc(-c3ccc4cccnc4c3)cc2)N(CC2CN(C(=O)C3CC3)C2)C1=O [Compound 24, 1-((1-(cyclopropanecarbonyl)azetidin-3-yl)methyl)-4,4-dimethyl-2-(4-(quinolin-7-yl)phenyl)-1H-imidazol-5(4H)-one] | 1450 nM | 447 nM | > 10000 nM | ~363 nM |
| CC1(C)N=C(c2ccc(-c3cnc4ccccc4c3)cc2)N(C[C@@H]2CCN(C(=O)C3CC3)C2)C1=O [Compound 25, (R)-1-((1-(cyclopropanecarbonyl)pyrrolidin-3-yl)methyl)-4,4-dimethyl-2-(4-(quinolin-3-yl)phenyl)-1H-imidazol-5(4H)-one] | 2880 nM | 891 nM | > 10000 nM | 1170 nM |
| CC1(C)N=C(c2ccc(-c3c[nH]c4ccccc34)cc2)N(C[C@@H]2CCN(C(=O)C3CC3)C2)C1=O [Compound 65, (R)-2-(4-(1H-indol-3-yl)phenyl)-1-((1-(cyclopropanecarbonyl)pyrrolidin-3-yl)methyl)-4,4-dimethyl-1H-imidazol-5(4H)-one] | 1260 nM | ~912 nM | > 10000 nM | 263 nM |
| Cc1cc(-c2ccc(-c3cnn(C)c3)cc2)ccc1C1=NC(C)(C)C(=O)N1CC1CN(C(=O)C2(C)CC2)C1 [Compound 87, 4,4-dimethyl-2-(3-methyl-4′-(1-methyl-1H-pyrazol-4-yl)-[1,1′-biphenyl]-4-yl)-1-((1-(1-methylcyclopropanecarbonyl)azetidin-3-yl)methyl)-1H-imidazol-5(4H)-one] | 178 nM | ~70.8 nM | ~10000 nM | 11.7 nM |
| Cn1ncc2cc(-c3ccc(C4=NC(C)(C)C(=O)N4CC4CN(C(=O)C5CC5)C4)c(F)c3)ccc21 [Compound 32, 1-((1-(cyclopropanecarbonyl)azetidin-3-yl)methyl)-2-(2-fluoro-4-(1-methyl-1H-indazol-5-yl)phenyl)-4,4-dimethyl-1H-imidazol-5(4H)-one] | 4680 nM | 1480 nM | > 10000 nM | 977 nM |
| CC1(C(=O)N2CC(CN3C(=O)C(C)(C)N=C3c3ccc(-c4ccc5cc(F)ccc5c4)cc3F)C2)CC1 [Compound 72, 2-(2-fluoro-4-(6-fluoronaphthalen-2-yl)phenyl)-4,4-dimethyl-1-((1-(1-methylcyclopropanecarbonyl)azetidin-3-yl)methyl)-1H-imidazol-5(4H)-one] | 295 nM | 26.9 nM | 7760 nM | ~25.7 nM |
| Cn1cc(-c2ccc(-c3ccc(C4=NC(C)(C)C(=O)N4C[C@@H]4CCN(C(=O)C5(C)CC5)C4)c(F)c3)cc2)cn1 [Compound 74, (R)-2-(3-fluoro-4′-(1-methyl-1H-pyrazol-4-yl)-[1,1′-biphenyl]-4-yl)-4,4-dimethyl-1-((1-(1-methylcyclopropanecarbonyl)pyrrolidin-3-yl)methyl)-1H-imidazol-5(4H)-one] | 11.5 nM | ~8.32 nM | > 10000 nM | 3.89 nM |
| CC1(C)N=C(c2ccc(-c3ccc4cnccc4c3)cc2)N(CC2CN(C(=O)C3CC3)C2)C1=O [Compound 27, 1-((1-(cyclopropanecarbonyl)azetidin-3-yl)methyl)-2-(4-(isoquinolin-6-yl)phenyl)-4,4-dimethyl-1H-imidazol-5(4H)-one] | 1380 nM | 324 nM | > 10000 nM | ~316 nM |
| Cn1ncc2cc(-c3ccc(C4=NC(C)(c5ccccc5)C(=O)N4C[C@@H]4CCN(C(=O)C5CC5)C4)cc3)ccc21 (mixture of isomers) [Compound 6, (4RS)-1-(((R)-1-(cyclopropanecarbonyl)pyrrolidin-3-yl)methyl)-4-methyl-2-(4-(1-methyl-1H-indazol-5-yl)phenyl)-4-phenyl-1H-imidazol-5(4H)-one] | 1820 nM | 501 nM | > 10000 nM | 363 nM |
| COCC1(C)N=C(c2ccc(-c3ccc4occc4c3)cc2)N(C[C@@H]2CCN(C(=O)C3CC3)C2)C1=O (mixture of isomers) [Compound 8, (4RS)-2-(4-(Benzofuran-5-yl)phenyl)-1-(((R)-1-(cyclopropanecarbonyl)pyrrolidin-3-yl)methyl)-4-(methoxymethyl)-4-methyl-1H-imidazol-5(4H)-one] | 2570 nM | 1290 nM | > 10000 nM | 1150 nM |
| Cn1cc(-c2ccc(-c3ccc(C4=NC(C)(C)C(=O)N4CC4CN(C(=O)C5(C)CC5)C4)c(F)c3)cc2)cn1 [Compound 70] | 135 nM | 11 nM | > 10000 nM | 24.5 nM |
| CC1(C)N=C(c2ccc(-c3ccc4cccc(F)c4c3)cc2F)N(C[C@@H]2CCN(C(=O)C3CC3)C2)C1=O [Compound 67, (R)-1-((1-(cyclopropanecarbonyl)pyrrolidin-3-yl)methyl)-2-(2-fluoro-4-(8-fluoronaphthalen-2-yl)phenyl)-4,4-dimethyl-1H-imidazol-5(4H)-one] | 407 nM | 145 nM |  | ~195 nM |
| Cn1ncc2cc(-c3ccc(C4=NC(C)(C)C(=O)N4CC4CN(C(=O)C5(O)CC5)C4)c(F)c3)ccc21 [Compound 78, 2-(2-fluoro-4-(1-methyl-1H-indazol-5-yl)phenyl)-1-((1-(1-hydroxycyclopropanecarbonyl)azetidin-3-yl)methyl)-4,4-dimethyl-1H-imidazol-5(4H)-one] | 3090 nM | 447 nM | > 10000 nM | 537 nM |
| CC1(C)N=C(c2ccc(-c3nc4ccccc4o3)cc2F)N(CC2CN(C(=O)C3CC3)C2)C1=O [Compound 52, 2-(4-(benzo[d]oxazol-2-yl)-2-fluorophenyl)-1-((1-(cyclopropanecarbonyl)azetidin-3-yl)methyl)-4,4-dimethyl-1H-imidazol-5(4H)-one] | 1290 nM | 776 nM | > 10000 nM | 708 nM |
| Cn1cc(-c2ccc(-c3ccc(C4=NC(C)(C)C(=O)N4C[C@@H]4CCN(C(=O)C5CC5)C4)c(F)c3)cc2)cn1 [Compound 45] | 117 nM | 67.6 nM | > 10000 nM | 26.3 nM |
| Cn1ncc2cc(-c3ccc(C4=NC(C)(C)C(=O)N4C[C@@H]4CCN(C(=O)C5(C)CC5)C4)c(F)c3)ccc21 [Compound 73, (R)-2-(2-fluoro-4-(1-methyl-1H-indazol-5-yl)phenyl)-4,4-dimethyl-1-((1-(1-methylcyclopropanecarbonyl)pyrrolidin-3-yl)methyl)-1H-imidazol-5(4H)-one] | 398 nM | 18.6 nM | > 10000 nM | 13.5 nM |
| CC1(C)N=C(c2ccc(-c3ccc4cnccc4c3)cc2)N(C[C@@H]2CCN(C(=O)C3CC3)C2)C1=O [Compound 28] | 1580 nM | 63.1 nM | > 10000 nM | 58.9 nM |
| CC1(C)N=C(c2ccc(-c3ccc4cc(F)ccc4c3)cc2)N(CC2CN(C(=O)C3CC3)C2)C1=O [Compound 29, 1-((1-(cyclopropanecarbonyl)azetidin-3-yl)methyl)-2-(4-(6-fluoronaphthalen-2-yl)phenyl)-4,4-dimethyl-1H-imidazol-5(4H)-one] | ~2820 nM | 1290 nM | > 10000 nM | 1230 nM |
| CC1(C)N=C(c2ccc(-c3ccc4cccnc4c3)cc2)N(C[C@@H]2CCN(C(=O)C3CC3)C2)C1=O [Compound 23] | 219 nM | 53.7 nM | > 10000 nM | 75.9 nM |
